One series addresses T1, TANK-2 enzyme (Homo sapiens, UniProt Q9H2K2).
T1 construct: made in house
T1 sequence (Q9H2K2 1-1166): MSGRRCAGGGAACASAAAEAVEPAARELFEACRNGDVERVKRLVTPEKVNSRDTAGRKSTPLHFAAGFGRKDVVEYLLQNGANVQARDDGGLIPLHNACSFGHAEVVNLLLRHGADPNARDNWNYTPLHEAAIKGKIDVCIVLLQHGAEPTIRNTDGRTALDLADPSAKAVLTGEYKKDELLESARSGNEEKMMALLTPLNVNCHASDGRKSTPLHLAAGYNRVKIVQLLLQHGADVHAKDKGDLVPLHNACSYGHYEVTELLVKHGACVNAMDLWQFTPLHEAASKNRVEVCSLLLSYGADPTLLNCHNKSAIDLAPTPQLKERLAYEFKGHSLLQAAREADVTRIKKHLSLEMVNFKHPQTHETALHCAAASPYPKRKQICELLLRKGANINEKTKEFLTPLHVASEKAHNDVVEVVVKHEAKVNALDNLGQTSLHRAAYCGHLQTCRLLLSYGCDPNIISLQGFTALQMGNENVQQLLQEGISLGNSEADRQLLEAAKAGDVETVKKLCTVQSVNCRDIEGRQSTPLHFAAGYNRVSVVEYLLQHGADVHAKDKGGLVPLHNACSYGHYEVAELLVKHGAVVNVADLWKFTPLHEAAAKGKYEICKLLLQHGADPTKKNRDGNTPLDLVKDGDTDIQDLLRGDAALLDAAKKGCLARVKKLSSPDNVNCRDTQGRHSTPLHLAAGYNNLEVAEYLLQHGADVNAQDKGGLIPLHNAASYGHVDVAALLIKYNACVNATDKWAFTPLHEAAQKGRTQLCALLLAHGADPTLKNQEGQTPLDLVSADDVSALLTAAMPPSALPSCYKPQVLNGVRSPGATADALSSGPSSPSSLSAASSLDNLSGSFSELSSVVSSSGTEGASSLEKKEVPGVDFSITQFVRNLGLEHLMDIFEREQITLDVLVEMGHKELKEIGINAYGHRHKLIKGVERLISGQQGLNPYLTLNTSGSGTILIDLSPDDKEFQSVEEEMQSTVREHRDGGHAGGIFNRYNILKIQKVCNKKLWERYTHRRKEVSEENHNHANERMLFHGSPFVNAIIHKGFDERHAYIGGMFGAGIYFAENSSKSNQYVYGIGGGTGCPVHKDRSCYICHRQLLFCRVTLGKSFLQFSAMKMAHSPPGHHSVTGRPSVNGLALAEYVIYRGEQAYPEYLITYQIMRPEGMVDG
Put plainly: In vitro scintillation proximity assay (SPA) for TANK-2 inhibitory activity. The series is classed as biochemical. The settings on record: auto-poly(ADP-ribosyl)ation; 96-well plate results if available, otherwise 384-well; read-out: in vitro SPA assay TANK-2 pIC50 (converted). As to the method:
In Vitro Scintillation Proximity Assay (SPA) for TANK-2 Inhibitory Activity
Compounds of the present invention were tested in an in vitro assay based on SPA technology with Ni Flash plates (96 or 384 well).
In principle, the assay relies upon SPA technology for the detection of auto-poly(ADP-ribosyl)ation of TANK-2 protein using [^3H]-nicotinamide adenine dinucleotide ([^3H]-NAD^+) as ADP-ribosyl donor.
A stock solution of [^3H]-NAD^+/NAD was made by adding 64.6 μl of [^3H]-NAD^+ (0.1 mCi/ml, supplier: Perkin Elmer) and 46.7 μl NAD-stock (10.7 mM, stored at −20° C., supplier Roche) to 1888.7 μl assay buffer (60 mM Tris/HCl, pH 7.4; 0.9 mM DTT; 6 mM MgCl2). The TANK-2 enzyme was produced as described in EP1238063. 60 μl of assay buffer, together with 1 μl of compound in DMSO, 20 μl of [^3H]-NAD^+/NAD and 20 μl of TANK-2 enzyme (final concentration 6 μg/ml) was added per well into a 96-well Ni-coated flash plate (Perkin Elmer). After incubation of the mixture for 120 min. at room temperature, the reaction was terminated by adding 60 μl of stop solution (42.6 mg NAD in 6 ml H2O). The plates were covered with a plate sealer and placed in a TopCountNXT™ (Packard) for scintillation counting. Values were expressed as counts per minute (cpm). For each experiment, controls (containing TANK-2 enzyme and DMSO without compound), a blank incubation (containing DMSO but no TANK-2 enzyme or compound) and samples (containing TANK-2 enzyme and compound dissolved in DMSO) were run in parallel. All compounds tested were dissolved and eventually further diluted in DMSO. In first instance, compounds were tested at a concentration of 10^−5M. […] In each test, the blank value was subtracted from both the control and the sample values. The control sample represented maximal TANK-2 enzyme activity. For each sample, the amount of cpm was expressed as a percentage of the mean cpm value of the controls. When appropriate, IC50-values (concentration of the drug, needed to reduce the TANK-2 enzyme activity to 50% of the control) were computed using linear interpolation between the experimental points just above and below the 50% level. Herein the effects of test compounds are expressed as pIC50 (the negative log value of the IC50-value). As reference compounds, 3-aminobenzamide and 4-amino-1,8-naphthalimide were included to validate the SPA assay. Herein the assay was described using 96-well plates. In the assay using 384-well plates the same final concentrations were used and volumes were adapted.

A further series addresses PARP-1 enzyme (Homo sapiens, UniProt P09874). Put plainly: In vitro scintillation proximity assay (SPA) for PARP-1 inhibitory activity. The series is classed as biochemical. The settings on record: [3H]-NAD+, biotinylated histones, nicked DNA; read-out: in vitro SPA assay PARP-1 pIC50 (converted). On the procedure: In Vitro Scintillation Proximity Assay (SPA) for PARP-1 Inhibitory Activity
Compounds of the present invention were tested in an in vitro assay based on SPA technology (proprietary to Amersham Pharmacia Biotech).
In principle, the assay relies upon the well established SPA technology for the detection of poly(ADP-ribosyl)ation of biotinylated target proteins, i.e histones. This ribosylation is induced using nicked DNA activated PARP-1 enzyme and [^3H]-nicotinamide adenine dinucleotide ([^3H]-NAD^+) as ADP-ribosyl donor.
As inducer of PARP-1 enzyme activity, nicked DNA was prepared. For this, 25 mg of DNA (supplier: Sigma) was dissolved in 25 ml DNAse buffer (10 mM Tris-HCl, pH 7.4; 0.5 mg/ml Bovine Serum Albumine (BSA); 5 mM MgCl2.6H2O and 1 mM KCl) to which 50 μl DNAse solution (1 mg/ml in 0.15M NaCl) was added. After an incubation of 90 min. at 37° C., the reaction was terminated by adding 1.45 g NaCl, followed by a further incubation at 58° C. for 15 min. The reaction mixture was cooled on ice and dialysed at 4° C. for respectively 1.5 and 2 hours against 1.5 l of 0.2M KCl, and twice against 1.5 l of 0.01M KCl for 1.5 and 2 h respectively. The mixture was aliquoted and stored at −20° C. Histones (1 mg/ml, type II-A, supplier: Sigma) were biotinylated using the biotinylation kit of Amersham and stored aliquoted at −20° C. A stock solution of 100 mg/ml SPA poly(vinyl toluene) (PVT) beads (supplier: Amersham) was made in PBS. A stock solution of [^3H]-NAD^+ was made by adding 120 μl of [^3H]-NAD^+ (0.1 mCi/ml, supplier: NEN) to 6 ml incubation buffer (50 mM Tris/HCl, pH 8; 0.2 mM DTT; 4 mM MgCl2). A solution of 4 mM NAD^+ (supplier: Roche) was made in incubation buffer (from a 100 mM stock solution in water stored at −20° C.). The PARP-1 enzyme was produced using art known techniques, i.e. cloning and expression of the protein starting from human liver cDNA. Information concerning the used protein sequence of the PARP-1 enzyme including literature references can be found in the Swiss-Prot database under primary accession number P09874. Biotinylated histones and PVT-SPA beads were mixed and pre-incubated for 30 min. at room temperature. PARP-1 enzyme (concentration was lot dependent) was mixed with the nicked DNA and the mixture was pre-incubated for 30 min. at 4° C. Equal parts of this histones/PVT-SPA beads solution and PARP-1 enzyme/DNA solution were mixed and 75 μl of this mixture together with 1 μl of compound in DMSO and 25 μl of [^3H]-NAD^+ was added per well into a 96-well microtiterplate. The final concentrations in the incubation mixture were 2 μg/ml for the biotinylated histones, 2 mg/ml for the PVT-SPA beads, 2 μg/ml for the nicked DNA and between 5-10 μg/ml for the PARP-1 enzyme. After incubation of the mixture for 15 min. at room temperature, the reaction was terminated by adding 100 μl of 4 mM NAD^+ in incubation buffer (final concentration 2 mM) and plates were mixed.
The beads were allowed to sediment for at least 15 min. and plates transferred to a TopCountNXT™ (Packard) for scintillation counting, values were expressed as counts per minute (cpm). For each experiment, controls (containing PARP-1 enzyme and DMSO without compound), a blank incubation (containing DMSO but no PARP-1 enzyme or compound) and samples (containing PARP-1 enzyme and compound dissolved in DMSO) were run in parallel. All compounds tested were dissolved and eventually further diluted in DMSO. In first instance, compounds were tested at a concentration of 10^−5M. […] In each test, the blank value was subtracted from both the control and the sample values. The control sample represented maximal PARP-1 enzyme activity. For each sample, the amount of cpm was expressed as a percentage of the mean cpm value of the controls. […] Herein the effects of test compounds are expressed as pIC50 (the negative log value of the IC50-value).

In the next series the test system is colitis. The note with it: rats, colitis by intraluminal trinitrobenzene sulfonic acid in 50% ethanol; cited from earlier work.
The subject of series [1] is ischemia and reperfusion of the heart. The settings on record: rabbits, cited from earlier work.

The values below come from patent publication US10150757B2, “Quinazolinone derivatives as PARP inhibitors” (Janssen Pharmaceutica NV, priority 2004, dated 2018).

Each structure is given as a SMILES string.

Sequence of PARP-1 enzyme (P09874 whole entry): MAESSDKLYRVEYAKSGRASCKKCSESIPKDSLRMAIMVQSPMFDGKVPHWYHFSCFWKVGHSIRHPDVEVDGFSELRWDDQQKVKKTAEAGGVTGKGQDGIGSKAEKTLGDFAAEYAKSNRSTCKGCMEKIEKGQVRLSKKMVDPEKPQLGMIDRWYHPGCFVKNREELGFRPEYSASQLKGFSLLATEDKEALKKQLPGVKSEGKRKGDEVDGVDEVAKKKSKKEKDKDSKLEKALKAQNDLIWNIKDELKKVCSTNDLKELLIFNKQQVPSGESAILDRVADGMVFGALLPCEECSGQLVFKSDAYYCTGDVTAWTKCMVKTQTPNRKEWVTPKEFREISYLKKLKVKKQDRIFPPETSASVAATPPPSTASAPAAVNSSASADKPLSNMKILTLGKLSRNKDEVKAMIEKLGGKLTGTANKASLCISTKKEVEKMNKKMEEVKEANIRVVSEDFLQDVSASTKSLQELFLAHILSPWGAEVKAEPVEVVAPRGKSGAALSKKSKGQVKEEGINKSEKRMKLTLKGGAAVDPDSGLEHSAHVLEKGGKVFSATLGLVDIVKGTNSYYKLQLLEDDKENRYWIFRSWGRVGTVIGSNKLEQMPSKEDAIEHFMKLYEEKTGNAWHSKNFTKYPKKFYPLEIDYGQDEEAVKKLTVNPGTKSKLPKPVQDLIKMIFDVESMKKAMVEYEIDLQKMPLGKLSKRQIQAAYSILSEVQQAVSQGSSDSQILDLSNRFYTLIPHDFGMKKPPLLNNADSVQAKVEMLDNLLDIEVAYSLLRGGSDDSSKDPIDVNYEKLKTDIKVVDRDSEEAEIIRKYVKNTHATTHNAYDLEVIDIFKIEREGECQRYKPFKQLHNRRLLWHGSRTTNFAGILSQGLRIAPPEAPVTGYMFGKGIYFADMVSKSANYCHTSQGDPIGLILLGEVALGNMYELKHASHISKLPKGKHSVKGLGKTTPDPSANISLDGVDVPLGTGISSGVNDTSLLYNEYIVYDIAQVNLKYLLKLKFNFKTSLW

As to `O=c1[nH]c(NCCN2CCN(c3n[nH]c4ccccc34)CC2)nc2ccccc12` [Compound 19], on TANK-2 enzyme, the IC50 was more than 10 µM.

Take `CCc1cc2cc(CN3CCN(CCNc4nc5ccccc5c(=O)[nH]4)CC3)ccc2nc1OC` (hydrate or solvate) [Compound 3]: the melting point was found to be 118 °C.

As to `O=c1[nH]c(NCCN2CCN(c3n[nH]c(=O)c4ccccc34)CC2)nc2ccccc12` [Compound 35], the IC50 on PARP-1 enzyme is 0.0107 µM.

As for `CO[C@@H]1CN(CCCNc2nc(O)c3ccc(Cl)cc3n2)CC[C@@H]1NC(=O)c1cc(Cl)c(N)c2c1OC(C)(C)C2` [Compound 17], at TANK-2 enzyme, the IC50 is more than 10 µM.

Regarding `CC1(C)Cc2cc(Cl)cc(C(=O)NC3CCN(CCCNc4nc(O)c5ccccc5n4)CC3)c2O1` [Compound 11], the IC50 on TANK-2 enzyme was more than 10 µM.

In the case of `CC1(C)Cc2cc(Cl)cc(C(=O)NC3CCN(CCNc4nc(O)c5ccccc5n4)CC3)c2O1` [Compound 12], the IC50 on TANK-2 enzyme is more than 10 µM.

With `NC(=O)c1cccc(N)c1` [3-amino-benzamide], the “inflammatory response, morphology and energetic status of the distal colon” value in the series on colitis is “reduced the inflammatory response and restored the morphology and the energetic status of the distal colon”. In series [1] (single injection 10 mg/kg, one minute before occlusion or one minute before reperfusion), the “reductions in infarct size in the heart” value is 32-42%.

On to `CO[C@@H]1CN(CCCNc2nc(O)c3cc(Cl)ccc3n2)CC[C@@H]1NC(=O)c1cc(Cl)c(N)c2c1OC(C)(C)C2` [Compound 16], for which the IC50 on TANK-2 enzyme is more than 10 µM.

On to `COc1cc2nc(NCCN3CCN(c4n[nH]c5ccccc45)CC3)[nH]c(=O)c2cc1OC` [Compound 32], for which the IC50 on PARP-1 enzyme was 0.0452 µM.

Regarding `Cc1cccc2nc(NCCN3CCC(c4n[nH]c5cc(F)ccc45)CC3)[nH]c(=O)c12` [Compound 34], on PARP-1 enzyme, the IC50 is 0.0217 µM.

On to `CO[C@H]1CN(CCNc2nc(O)c3ccccc3n2)CC[C@H]1NC(=O)c1cc(Cl)cc2c1OC(C)(C)C2` [Compound 13], for which the IC50 on TANK-2 enzyme is more than 10 µM.

As for `Oc1cccc2c(O)nccc12` [1,5-dihydroxyisoquinoline], the reduced infarct size in series [1] (single injection 1 mg/kg) is recorded as 38-48%.
